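Tested at 5 concentrations; 48 h exposure; 96-well plates; endpoints linearly interpolated, else capped at highest concentration. Abbreviation: GI50, concentration required for 50% inhibition of growth.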 The source made the active and inactive calls. Cut-off read from the data, not from the text of the source: active = GI50 up to about 1.1 µM and inactive = higher.
How the values were obtained:
Assay in all cases: NCI anticancer screen, dose series, 48 h
DLD-1 = tested on: DLD-1
DMS-114 = tested on: DMS-114
DMS-273 = tested on: DMS-273
HOP-18 = tested on: HOP-18
KM-20L2 = tested on: KM-20L2
SNB-78 = tested on: SNB-78
XF498 = tested on: XF498
M19-MEL = tested on: M19-MEL
RXF 631 = tested on: RXF 631

| SMILES | GI50 (DLD-1) | GI50 (DMS-114) | GI50 (DMS-273) | GI50 (HOP-18) | GI50 (KM-20L2) | GI50 (SNB-78) | GI50 (XF498) | GI50 (M19-MEL) | GI50 (RXF 631) |
| --- | --- | --- | --- | --- | --- | --- | --- | --- | --- |
| CC1(C)OB(O)OC1(C)C | > 100 µM (inactive) | > 100 µM (inactive) | > 100 µM (inactive) | > 100 µM (inactive) | > 100 µM (inactive) | > 100 µM (inactive) | > 100 µM (inactive) |  |  |
| O=C(O)/C(Cl)=C(\Cl)C(=O)NC1C2CC3CC(C2)CC1C3 (centres undefined) | > 100 µM (inactive) | > 100 µM (inactive) | > 100 µM (inactive) | > 100 µM (inactive) | > 100 µM (inactive) | > 100 µM (inactive) | > 100 µM (inactive) | > 100 µM (inactive) | 61 µM (inactive) |
| C/C(=C\CC/C=C(\C)CC/C=C(\C)CCC1SC1(C)C)CC/C=C(\C)CCC1OC1(C)C (centres undefined) | > 100 µM (inactive) | 65.6 µM (inactive) | > 100 µM (inactive) | > 100 µM (inactive) | > 100 µM (inactive) |  | > 100 µM (inactive) | 71.4 µM (inactive) |  |
| CCOC(=O)CN1C(=O)c2cc([N+](=O)[O-])cc3cc([N+](=O)[O-])cc(c23)C1=O | 5.86 µM (inactive) | 57.7 µM (inactive) | > 100 µM (inactive) | > 100 µM (inactive) | 50.8 µM (inactive) | 4.2 µM (inactive) | > 100 µM (inactive) | 30.1 µM (inactive) | 50.7 µM (inactive) |
| O=[N+]([O-])C1(CO)COC(CCc2ccccc2)OC1 (centres undefined) | > 100 µM (inactive) |  |  | > 100 µM (inactive) | > 100 µM (inactive) |  | > 100 µM (inactive) | > 100 µM (inactive) |  |
| O=C(N/C(=C\c1cccc([N+](=O)[O-])c1)c1nc2ccccc2[nH]1)c1ccccc1 | 55.5 µM (inactive) | 26.7 µM (inactive) | 69.2 µM (inactive) |  | 43.8 µM (inactive) | 44.6 µM (inactive) | 27.7 µM (inactive) | 62.8 µM (inactive) |  |
| Cc1ccc(C2=C(c3ccc(C)cc3)C(c3ccc(C)cc3)=C(c3ccc(C)cc3)C2=O)cc1 | > 100 µM (inactive) |  |  | > 100 µM (inactive) | > 100 µM (inactive) | > 100 µM (inactive) | > 100 µM (inactive) | > 100 µM (inactive) | > 100 µM (inactive) |
| CC(C)c1ccc(C2NC(S)=NC3=C2c2ccccc2C3=O)cc1 (centres undefined) | 48.5 µM (inactive) | 21.3 µM (inactive) | 30 µM (inactive) |  | 25.6 µM (inactive) |  | 32.4 µM (inactive) | 38.9 µM (inactive) | 54 µM (inactive) |
| C1CCNCC1.S=C(S)N1CCCCC1 |  | 0.24 µM (active) |  | 100 µM (inactive) | 100 µM (inactive) | 100 µM (inactive) |  | 0.685 µM (active) | 4.43 µM (inactive) |
| CC12CC3C(CC1SCC(=O)O2)C3(C)C (centres undefined) | > 100 µM (inactive) | > 100 µM (inactive) | > 100 µM (inactive) | > 100 µM (inactive) |  | > 100 µM (inactive) | > 100 µM (inactive) | > 100 µM (inactive) |  |
| CC(C)C(/C=C/c1ccc(Br)cc1)=N\NC(N)=O | > 100 µM (inactive) | > 100 µM (inactive) | > 100 µM (inactive) |  | > 100 µM (inactive) | > 100 µM (inactive) | > 100 µM (inactive) | 12.2 µM (inactive) |  |
| COC(=O)c1nc(-c2ccc(Cl)c(Cl)c2)nc2ccc(Cl)cc12 | > 100 µM (inactive) | 13.8 µM (inactive) | 81.1 µM (inactive) |  | 21 µM (inactive) | 6.59 µM (inactive) |  | > 100 µM (inactive) |  |
| Cc1cn(C2CC(OC3CCCCO3)C(CO)O2)c(=O)[nH]c1=O (centres undefined) | > 100 µM (inactive) |  | > 100 µM (inactive) | > 100 µM (inactive) | > 100 µM (inactive) | > 100 µM (inactive) | > 100 µM (inactive) | > 100 µM (inactive) |  |
| CC(=O)OC12c3ccccc3C1CCCCCC21OCCCO1 (centres undefined) | > 100 µM (inactive) | > 100 µM (inactive) | > 100 µM (inactive) |  | > 100 µM (inactive) | > 100 µM (inactive) |  | > 100 µM (inactive) |  |
| CCc1ccc(/C(C)=N/NC(N)=S)cc1 |  | 48.9 µM (inactive) |  | > 100 µM (inactive) | > 100 µM (inactive) | > 100 µM (inactive) | 0.569 µM (active) | > 100 µM (inactive) |  |
| Cc1cc(C)nc(NS(=O)(=O)c2ccc(NC(=O)c3cccc4c(Nc5ccc(S(=O)(=O)N=C(N)N)cc5)c5ccccc5nc34)cc2)n1 | 7.62 µM (inactive) |  | 19.7 µM (inactive) | > 100 µM (inactive) | 34.2 µM (inactive) | 8.3 µM (inactive) | > 100 µM (inactive) | 22.1 µM (inactive) | 27.3 µM (inactive) |
| CC(=O)Nc1ccc(-c2nnc(SCC(=O)Nc3ccc([N+](=O)[O-])cc3)o2)cc1 | 11.9 µM (inactive) | 3.3 µM (inactive) | 10.6 µM (inactive) | 16.4 µM (inactive) | 14.4 µM (inactive) | 16.1 µM (inactive) |  | 13.5 µM (inactive) |  |
| CCOc1ccc(C2=NN(CC)C(=O)C(C3C(=O)N(c4ccccc4)N=C3C)C2)cc1 (centres undefined) | > 100 µM (inactive) | > 100 µM (inactive) | > 100 µM (inactive) | > 100 µM (inactive) | > 100 µM (inactive) | > 100 µM (inactive) | > 100 µM (inactive) | > 100 µM (inactive) |  |
| CC(CC(=O)N1C(=O)C(C)(C)[C@@H](O)[C@H]1CC(C)C(Cl)(Cl)Cl)C(Cl)(Cl)Cl (some centres undefined) | > 100 µM (inactive) | > 100 µM (inactive) | > 100 µM (inactive) | > 100 µM (inactive) | > 100 µM (inactive) | > 100 µM (inactive) | > 100 µM (inactive) | > 100 µM (inactive) |  |
| O=C(CCc1n[nH]c(=S)o1)Nc1cc(Cl)ccc1Cl | 79.3 µM (inactive) |  | 19.1 µM (inactive) | > 100 µM (inactive) | 48.2 µM (inactive) | > 100 µM (inactive) |  | > 100 µM (inactive) |  |
| C[Si](C)(C)/C=C\CCO | > 100 µM (inactive) | > 100 µM (inactive) | > 100 µM (inactive) | > 100 µM (inactive) | > 100 µM (inactive) | > 100 µM (inactive) | > 100 µM (inactive) | > 100 µM (inactive) | > 100 µM (inactive) |
| c1ccc(C2(c3ccccc3)SSC3(S2)C2CC4CC(C2)CC3C4)cc1 (centres undefined) | > 100 µM (inactive) | > 100 µM (inactive) |  |  | > 100 µM (inactive) | > 100 µM (inactive) |  |  |  |
| N#CC(C(=O)/C(=N\NC(N)=O)C(C#N)c1ccc(Cl)cc1)c1ccc(Cl)cc1 (centres undefined) | > 100 µM (inactive) | > 100 µM (inactive) |  | > 100 µM (inactive) | > 100 µM (inactive) | > 100 µM (inactive) | > 100 µM (inactive) | > 100 µM (inactive) | > 100 µM (inactive) |
| CCc1cccc(C)c1N1C(=O)C(=O)C(c2nc3ccccc3o2)/C(=N/NC(=S)NN)C1=O (centres undefined) | > 100 µM (inactive) | > 100 µM (inactive) | > 100 µM (inactive) |  | > 100 µM (inactive) | > 100 µM (inactive) | > 100 µM (inactive) | > 100 µM (inactive) | > 100 µM (inactive) |
| Nc1ncnc2c1ncn2CCOC(c1ccccc1)P(=O)(O)O (centres undefined) | > 100 µM (inactive) |  | > 100 µM (inactive) |  | > 100 µM (inactive) | > 100 µM (inactive) |  | > 100 µM (inactive) |  |

From ChEMBL document CHEMBL1201862, “PubChem BioAssay data set” (2004)
